Test results: patent publication US9969758B2, “Antimicrobial compounds” (BIOMERIEUX, priority 2014, dated 2018)
In brackets after ≈: the same amount, converted by molar mass. Read-outs that look alike come from different tables or passages of the source.

Columns and labels:
Test in all cases: MIC by agar dilution
E. coli (53) = format: cell-based, Escherichia coli; settings: for MIC50 / MIC90 / MIC: Escherichia coli; for MIC: read-out: Modal MIC (most frequent MIC)
Text: (§1) Bacterial isolates. […] These included Citrobacter freundii (n=5), other species of Citrobacter (n=4), Enterobacter aerogenes (n=1), Enterobacter cloacae (n=27), Escherichia coli (n=53), Klebsiella oxytoca (n=5), Klebsiella pneumoniae (n=87), Kluyvera spp (n=1), Proteus mirabilis (n=8), Providencia rettgeri (n=2), Salmonella spp (n=3), and Serratia marcescens (n=1). Among these 197 isolates, there were 128 (65%) carbapenemase producers, including; 87 with NDM-1, 9 with IMP, 11 with KPC, 14 with OXA-48 and 7 with VIM. The majority of the carbapenemase producers jointly produced broad-spectrum β-lactamases (BSBL) or cephalosporinases (AmpC β-lactamases), but the latter are not documented for the sake of clarity.
(§2) Determining the minimum inhibitory concentrations (MIC). All the MICs were determined using an agar dilution method. This required use of a medium without a defined antagonist (peptone-free), prepared as described previously with the inclusion of 2% horse blood lysed with saponin, 25.0 μg/mL of NAD and 25.0 μg/mL of hemin [17]. The compounds tested were dissolved in sterile deionised water and incorporated into the agar medium in a concentration range of 0.0031 to 8.0 μg/mL (0.016 to 32 μg/mL for gram-positive bacteria). All the isolates were prepared at a density equivalent to 0.5 McFarland units in sterile deionised water using a densitometer (approximately 1.5×10^8 CFU/mL), and then diluted to 1 for 15. An aliquot of 1 μL of each diluted suspension was then placed onto plates with a multispot inoculator to give the final recommended inoculation of 10 000 CFU/spot. The MICs of fosfomycin were determined by the same method, except that the IsoSensitest medium (Oxoid, Basingstoke, United Kingdom) was used, plus 25.0 μg/mL of glucose-6-phosphate (Sigma, Poole, United Kingdom) and an extended range of fosfomycin concentrations. All the dishes (including the antimicrobial-free controls) were incubated for 22 hours at 37° C. All the tests were performed on at least two independent replicates in order to examine the reproducibility.

K. pneumoniae (87) = format: cell-based, Klebsiella pneumoniae; settings: Klebsiella pneumoniae; for MIC: read-out: Modal MIC (most frequent MIC)
Text: as §1, §2

E. faecium (34) = format: cell-based, Enterococcus faecium; settings: Enterococcus faecium; for MIC: read-out: Modal MIC (most frequent MIC)
Text: (§3) A collection of 50 isolates of Staphylococci aureus included 36 strains of methicillin-resistant S. aureus (MRSA) frequently encountered in Europe, including strains isolated in Belgium, Finland, France, Germany and the United Kingdom. Another strain of MRSA, NCTC 11939, was included as a control, as well as a methicillin-sensitive control (NCTC 6571). Twelve other isolates of methicillin-sensitive Staphylococcus aureus (MSSA) recently collected from blood cultures were also included. Finally, 50 isolates of enterococci included two control strains (Enterococcus faecalis NCTC 755 and Enterococcus faecium NCTC 7171) and 48 isolates originating from clinical samples obtained from at least three different hospitals. The clinical isolates included E. faecalis (n=10), E. faecium (n=33), Enterococcus casseliflavus (n=3), Enterococcus gallinarum (n=2).
as §2

All S. aureus (50) = format: cell-based, Staphylococcus aureus; settings: for MIC50 / MIC90 / MIC: Staphylococcus aureus; for MIC: read-out: Modal MIC (most frequent MIC)
Text: as §3, §2

E. faecalis (11) = format: cell-based, Enterococcus faecalis; settings: for MIC50 / MIC90 / MIC: Enterococcus faecalis; for MIC: read-out: Modal MIC (most frequent MIC)
Text: as §3, §2

[1] = test system: methicillin-sensitive Staphylococcus aureus; format: cell-based; settings: for MIC50 / MIC90 / MIC: Staphylococcus aureus; for MIC: read-out: Modal MIC (most frequent MIC)
Text: as §3, §2

All Enterococci (50) = format: cell-based; settings: for MIC: read-out: Modal MIC (most frequent MIC)
Text: as §3, §2

[2] = test system: methicillin-resistant Staphylococcus aureus; format: cell-based; settings: for MIC50 / MIC90 / MIC: Staphylococcus aureus; for MIC: read-out: Modal MIC (most frequent MIC)
Text: as §3, §2

[3] = test system: glycopeptide-resistant enterococci; format: cell-based
Text: as §3, §2

[4] = test system: carbapenemase-producing Enterobacteriaceae; format: cell-based; settings: for MIC: read-out: Modal MIC (most frequent MIC)
Text: as §1, §2

[5] = test system: Enterobacteriaceae with a broad-spectrum β-lactamase; format: cell-based; settings: for MIC: read-out: Modal MIC (most frequent MIC)
Text: as §1, §2

Enterobacteriaceae (197) = format: cell-based; settings: for MIC: read-out: Modal MIC (most frequent MIC)
Text: as §1, §2

E. cloacae (27) = format: cell-based, Enterobacter cloacae; settings: for MIC50 / MIC90 / MIC: Enterobacter cloacae; for MIC: read-out: Modal MIC (most frequent MIC)
Text: as §1, §2

AmpC (22) = format: cell-based, Enterobacteriaceae; settings: for MIC: read-out: Modal MIC (most frequent MIC)
Text: as §1, §2

SMILES: N[C@@H](CCl)C(=O)N[C@@H](CCl)C(=O)O [β-Cl-Ala-β-Cl-Ala, β-chloro-L-alanyl-β-chloro-L-alanine]
- MIC50 (E. coli (53)): 8 µg/mL (≈ 34.9 µM)
- MIC90 (E. coli (53)): > 8 µg/mL
- MIC (E. coli (53)): 8 µg/mL (≈ 34.9 µM)
- MIC50 (K. pneumoniae (87)): > 8 µg/mL
- MIC90 (K. pneumoniae (87)): > 8 µg/mL
- MIC (K. pneumoniae (87)): > 8 µg/mL
- MIC50 (E. faecium (34)): 16 µg/mL (≈ 69.8 µM)
- MIC90 (E. faecium (34)): 32 µg/mL (≈ 140 µM)
- MIC (E. faecium (34)): 16 µg/mL (≈ 69.8 µM)
- MIC Range (All S. aureus (50); All S. aureus (50)): 0.125 to 16 µg/mL
- MIC50 (All S. aureus (50)): 2 µg/mL (≈ 8.73 µM)
- MIC90 (All S. aureus (50)): 4 µg/mL (≈ 17.5 µM)
- MIC (All S. aureus (50)): 2 µg/mL (≈ 8.73 µM)
- MIC Range (E. faecalis (11); E. faecalis (11)): 4 to 16 µg/mL
- MIC50 (E. faecalis (11)): 8 µg/mL (≈ 34.9 µM)
- MIC90 (E. faecalis (11)): 16 µg/mL (≈ 69.8 µM)
- MIC (E. faecalis (11)): 8 µg/mL (≈ 34.9 µM)
- MIC Range ([1]; MSSA (13)): 0.5 to 2 µg/mL
- MIC50 ([1]; MSSA): 1 µg/mL (≈ 4.37 µM)
- MIC90 ([1]; MSSA): 2 µg/mL (≈ 8.73 µM)
- MIC ([1]; MSSA): 1 µg/mL (≈ 4.37 µM)
- MIC50 (All Enterococci (50)): 16 µg/mL (≈ 69.8 µM)
- MIC90 (All Enterococci (50)): 32 µg/mL (≈ 140 µM)
- MIC Range (All Enterococci (50); All Enterococci (50)): 2 to 16 µg/mL
- MIC (All Enterococci (50)): 16 µg/mL (≈ 69.8 µM)
- MIC Range ([2]; MRSA (37)): 0.125 to 16 µg/mL
- MIC50 ([2]; MRSA): 2 µg/mL (≈ 8.73 µM)
- MIC90 ([2]; MRSA): 4 µg/mL (≈ 17.5 µM)
- MIC ([2]; MRSA): 2 µg/mL (≈ 8.73 µM)
- MIC50 [3]: 16 µg/mL (≈ 69.8 µM)
- MIC90 [3]: > 32 µg/mL
- MIC ([3]; read-out: Modal MIC (most frequent MIC)): 16 µg/mL (≈ 69.8 µM)
- MIC50 [4]: > 8 µg/mL
- MIC90 [4]: > 8 µg/mL
- MIC [4]: > 8 µg/mL
- MIC50 [5]: > 8 µg/mL
- MIC90 [5]: > 8 µg/mL
- MIC [5]: > 8 µg/mL
- MIC50 (Enterobacteriaceae (197)): > 8 µg/mL
- MIC90 (Enterobacteriaceae (197)): > 8 µg/mL
- MIC (Enterobacteriaceae (197)): > 8 µg/mL
- MIC50 (E. cloacae (27)): > 8 µg/mL
- MIC90 (E. cloacae (27)): > 8 µg/mL
- MIC (E. cloacae (27)): > 8 µg/mL
- MIC50 (AmpC (22)): > 8 µg/mL
- MIC90 (AmpC (22)): > 8 µg/mL
- MIC (AmpC (22)): > 8 µg/mL

SMILES: C[C@H](NC(=O)[C@H](CCl)NC(=O)[C@@H](N)CCl)P(=O)(O)O [β-Cl-Ala-β-Cl-Alafosfalin, β-chloro-L-alanyl-β-chloro-L-alanyl-L-1-aminoethylphosphonic acid]
- MIC Range (E. coli (53); E. coli (53)): ≤0.031-1 ^ μg/mL
- MIC50 (E. coli (53); E. coli (53), read-out: MIC50): 0.25 µg/mL (≈ 0.744 µM)
- MIC90 (E. coli (53); E. coli (53), read-out: MIC90): 1 µg/mL (≈ 2.98 µM)
- MIC (E. coli (53); E. coli (53)): 0.25 µg/mL (≈ 0.744 µM)
- MIC50 (K. pneumoniae (87); K. pneumoniae (87), read-out: MIC50): 4 µg/mL (≈ 11.9 µM)
- MIC90 (K. pneumoniae (87); K. pneumoniae (87), read-out: MIC90): > 8 µg/mL
- MIC (K. pneumoniae (87); K. pneumoniae (87)): 4 µg/mL (≈ 11.9 µM)
- MIC50 (E. faecium (34); E. faecium (34), read-out: MIC50): 8 µg/mL (≈ 23.8 µM)
- MIC90 (E. faecium (34); E. faecium (34), read-out: MIC90): 8 µg/mL (≈ 23.8 µM)
- MIC (E. faecium (34); E. faecium (34)): 8 µg/mL (≈ 23.8 µM)
- MIC Range (All S. aureus (50); All S. aureus (50)): 2 to 16 µg/mL
- MIC50 (All S. aureus (50); All S. aureus (50), read-out: MIC50): 16 µg/mL (≈ 47.6 µM)
- MIC90 (All S. aureus (50); All S. aureus (50), read-out: MIC90): 16 µg/mL (≈ 47.6 µM)
- MIC (All S. aureus (50); All S. aureus (50)): 16 µg/mL (≈ 47.6 µM)
- MIC50 (E. faecalis (11); E. faecalis (11), read-out: MIC50): 0.25 µg/mL (≈ 0.744 µM)
- MIC90 (E. faecalis (11); E. faecalis (11), read-out: MIC90): 4 µg/mL (≈ 11.9 µM)
- MIC (E. faecalis (11); E. faecalis (11)): 0.25 µg/mL (≈ 0.744 µM)
- MIC Range ([1]; MSSA (13)): 4 to 16 µg/mL
- MIC50 ([1]; MSSA (13), read-out: MIC50): 16 µg/mL (≈ 47.6 µM)
- MIC90 ([1]; MSSA (13), read-out: MIC90): 16 µg/mL (≈ 47.6 µM)
- MIC ([1]; MSSA (13)): 16 µg/mL (≈ 47.6 µM)
- MIC50 (All Enterococci (50); All Enterococci (50), read-out: MIC50): 8 µg/mL (≈ 23.8 µM)
- MIC90 (All Enterococci (50); All Enterococci (50), read-out: MIC90): 16 µg/mL (≈ 47.6 µM)
- MIC (All Enterococci (50); All Enterococci (50)): 8 µg/mL (≈ 23.8 µM)
- MIC Range ([2]; MRSA (37)): 2 to 16 µg/mL
- MIC ([2]; MRSA): 16 µg/mL (≈ 47.6 µM)
- MIC50 ([2]; MRSA (37), read-out: MIC50): 16 µg/mL (≈ 47.6 µM)
- MIC90 ([2]; MRSA (37), read-out: MIC90): 16 µg/mL (≈ 47.6 µM)
- MIC50 ([3]; GRE (43), read-out: MIC50): 8 µg/mL (≈ 23.8 µM)
- MIC90 ([3]; GRE (43), read-out: MIC90): 16 µg/mL (≈ 47.6 µM)
- MIC50 [4]: 2 µg/mL (≈ 5.95 µM)
- MIC90 [4]: 8 µg/mL (≈ 23.8 µM)
- MIC [4]: 4 µg/mL (≈ 11.9 µM)
- MIC50 [5]: 4 µg/mL (≈ 11.9 µM)
- MIC90 [5]: > 8 µg/mL
- MIC [5]: > 8 µg/mL
- MIC50 (Enterobacteriaceae (197); Enterobacteriaceae (197), read-out: MIC50): 2 µg/mL (≈ 5.95 µM)
- MIC90 (Enterobacteriaceae (197); Enterobacteriaceae (197), read-out: MIC90): > 8 µg/mL
- MIC (Enterobacteriaceae (197); Enterobacteriaceae (197)): 4 µg/mL (≈ 11.9 µM)
- MIC Range (E. cloacae (27); E. cloacae (27)): 0.25 to 8 µg/mL
- MIC50 (E. cloacae (27); E. cloacae (27), read-out: MIC50): 1 µg/mL (≈ 2.98 µM)
- MIC90 (E. cloacae (27); E. cloacae (27), read-out: MIC90): 4 µg/mL (≈ 11.9 µM)
- MIC (E. cloacae (27); E. cloacae (27)): 1 µg/mL (≈ 2.98 µM)
- MIC90 (AmpC (22)): > 8 µg/mL
- MIC (AmpC (22)): > 8 µg/mL
